Values of other authors in patent US8815929B2, “Method and therapeutic/cosmetic topical compositions for the treatment of rosacea and skin erythema using α1-adrenoceptor agonists” (Allergan, Inc., priority 2004, dated 2014).
Where a name gives a salt, the structure may show the parent alone.

What was measured:
[1] = dog, cat, rabbit or mouse; dosages close to those used in man; manufacturers' report
[2] = rabbits; injection subcutaneously
[3] = retrospective study in man
[4] = used intranasally and ophthalmically for decades

SMILES: Cc1cc(C(C)(C)C)c(O)c(C)c1CC1=NCCN1 [oxymetazoline, 2-(3-Hydroxy-2,6-dimethyl-4-t-butylbenzyl)-2-imidazoline hydrochloride]
- organ damage or general toxicity [1]: no significant organ damage or general toxicity
- drug related abnormalities or effects on the offspring [2]: no drug related abnormalities or effects on the offspring were found
- association between the drug and congenital disorders [3]: no association was found
- systemic side effects [4]: has not been reported to effect any systemic side effects
